Data as given in paper PMC9011347, “Small-Molecule Inhibitors Targeting Lipolysis in Human Adipocytes” (Journal of the American Chemical Society, 2022).

Tests used:
pig ATGL = assay: TAG hydrolase assay, Expi293 lysates expressing ATGL orthologue; format: biochemical; conditions: NG-497 50 μM
Excerpt: (§1) We previously developed Atglistatin (Ai), a selective inhibitor of mouse ATGL,[31],[32] which is ineffective against human ATGL.[17] Ai acts as a competitive inhibitor targeting the minimal active domain of ATGL ranging from aa 1–254.[33] This domain is highly conserved in different mammalian species (∼90% identity, Table 1) and comprises the patatin-like domain, eponymous for all members of the patatin-like phospholipase domain-containing (PNPLA) protein family.[34] We first investigated the species selectivity of Ai by performing TAG hydrolase assays[35] with lysates from Expi293 cells expressing ATGL orthologues of different species. The activity of ATGL is strongly stimulated by the co-activator protein comparative gene identification-58 (CGI-58, also known as α/β hydrolase domain containing 5, ABHD5)[36] and can be suppressed by the inhibitory protein G0/G1 switch 2 (G0S2).[37] We therefore determined ATGL activity in the presence and absence of mouse CGI-58, mouse G0S2, and Ai. As shown in Figure 1a–i, all ATGL orthologues were expressed, enzymatically active, stimulated by mouse CGI-58, and inactivated by mouse G0S2. Ai inhibited mouse (Figure 1a), rat (Figure 1b), goat (Figure 1c), dog (Figure 1e), and marmoset ATGL (Figure 1f), but not pig (Figure 1d), rhesus monkey (Figure 1g), or human ATGL (Figure 1h).
(§2) Experimental details, materials, and methods
(§3) Expression of recombinant ATGL constructs and preparation of cell lysates. Expi293 cells were cultivated in Expi293 Expression Medium (GIBCO, Thermo Fisher Scientific, Waltham, USA) at standard conditions (37°C, 5% CO2, 95% humidified atmosphere, 125 rpm). DNA constructs containing ATGL from different species and chimeric ATGL variants in pcDNA3.1(+)myc-His C Vector were obtained from BioCat GmbH (Heidelberg, Germany). Cells were transfected with ExpiFectamine293 Transfection Kit (GIBCO) in Opti-Mem reduced serum medium (GIBCO) according to the manufacturer’s instructions. After 48 h, cells were harvested by centrifugation and washed three times with PBS. Cells were disrupted in buffer A (0.25 M sucrose, 1 mM EDTA, 1 mM dithiothreitol, 20µg/ml leupeptin, 2 µg/ml antipain, 1 µg/ml pepstatin, pH 7.0) by sonication (Virsonic 475, Virtis, Gardiner, USA). Nuclei and debris were removed by centrifugation at 1,000 g and 4°C for 10 min. Protein concentrations were determined using Bio-Rad protein assay (Bio-Rad 785, Bio-Rad Laboratories, Munich, Germany) using BSA as standard.
(§4) Expression and purification of mouse CGI-58. CGI-58 was expressed and purified as described 1. In brief, the coding sequence of mouse Cgi-58 was cloned into pHis-Sumo and co-transformed with the plasmid pTf16 expressing the chaperone Tig into E. coli BL21(DE3). Cells were cultured overnight at 37°C and 180 rpm in the presence of 40 µg/ml kanamycin and 34 µg/ml chloramphenicol. Thereafter, cells were transferred into fresh LB medium, grown until OD600 of 0.6, and expression was induced by the addition of 0.5 mM IPTG. After overnight incubation at 30°C, cells were harvested at 4,500 x g and 4°C for 20 min, washed in 1x PBS, and resuspended in lysis buffer (20 mM Tris/HCl pH 7.8, 300 mM NaCl, 30 mM imidazole, 0.1% IGEPAL CA-630, 3.5 mM β-mercaptoethanol, 20 µg/ml leupeptin, 2 µg/ml antipain and 1 µg/ml pepstatin). Cells were incubated with 1 mg/ml lysozyme at 4°C for 20 min, disrupted by sonication, and lysates were centrifuged at 30,000 x g and 4°C for 40 min. His-CGI-58 was purified from the supernatant using an ÄKTA pure system (Cytiva, Uppsala, Sweden) equipped with a 5 ml HisTrap […]
(§5) Expression and purification of mouse G0S2. Chemically competent E. coli ArcticExpress (DE3) cells were transformed with the pST50-SMT3-TEV-mG0S2-His expression plasmid, plated on LB agar plates containing 100 ampicillin, and incubated […] overnight at 37°C. The next day, 10 ml LB medium supplemented with 100 μg/ml ampicillin, 20 μg/ml gentamycin and 2% glucose were inoculated with a single colony and incubated overnight at 37°C. […]

rhesus monkey ATGL = assay: as above; format: biochemical; conditions: NG-497 50 μM
Excerpt: as §1, §2, §3, §4, §5

SMILES: CCOc1ccc(-c2cc(OC)cc(C(=O)OC(C)C)n2)cc1 [NG-497]
- reduction in TAG hydrolase activity (pig ATGL): less than 20%
- inhibition of ATGL orthologue (rhesus monkey ATGL): inactivates
